One assay deals with Mcl-1, Bcl-xL, Bcl-2. Briefly: BCL-2 family selectivity profile. The format is binding. From the text:
The binding spectrum of stapled BIM BH3 peptides were tuned for BCL-2 family selectivity. […] ABT-199 is venetoclax, and † represents values reported in the literature.

Another assay concerns the target Bcl-2 (Homo sapiens, UniProt P10415). Briefly: Ki determination for Bcl-2 (BCL-2 family binding spectrum). The essentials:
(§1)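 Competitive fluorescence polarization: compounds (1 nM–1 mM) with 25 nM fluoresceinated peptidomimetic macrocycle and 50 nM protein in 140 mM NaCl, 50 mM Tris-HCl pH 7.4, 30 min at room temperature. Constants from nonlinear regression.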

A further assay addresses Mcl-1 (Homo sapiens, UniProt Q07820). Briefly: Ki determination for Mcl-1 (BCL-2 family binding spectrum). The essentials: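 Competitive fluorescence polarization assay in which compounds displace a fluoresceinated peptidomimetic macrocycle tracer from Mcl-1. Affinity constants were obtained by nonlinear regression.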
The target of the next assay is Bcl-xL (Homo sapiens, UniProt Q07817). Kind of assay: Ki determination for Bcl-xL (BCL-2 family binding spectrum). The essentials: as §1
Bcl-xL, sequence (Q07817 whole entry, species assumed): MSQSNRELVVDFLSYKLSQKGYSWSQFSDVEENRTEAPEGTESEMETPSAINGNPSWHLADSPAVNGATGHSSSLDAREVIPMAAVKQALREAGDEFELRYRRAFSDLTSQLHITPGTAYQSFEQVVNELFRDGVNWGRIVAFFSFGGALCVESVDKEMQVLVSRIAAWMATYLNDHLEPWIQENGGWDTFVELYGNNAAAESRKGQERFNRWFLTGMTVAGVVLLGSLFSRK

The record followed here is US20190185518A9, “WARHEAD-CONTAINING PEPTIDOMIMETIC MACROCYCLES AS MODULATORS OF BFL-1” (AILERON Therapeutics, Inc., priority 2017, published 2019).

Molecules are shown by their SMILES. Where two headings read alike, the source gives them in different places. Positions of bridges follow the written chain, without caps; N, C: chain ends. Non-standard residues stand in square brackets, D forms with d. Residues, ends and D or L forms follow the SMILES beside them. ξ: configuration not given here. R8 = C=CCCCCCC[C@@](C)(N)C(=O)O; ξαMeD = CC(N)(CC(=O)O)C(=O)O; S5 = C=CCCC[C@](C)(N)C(=O)O; Aib = CC(C)(N)C(=O)O A value given as a limit tells only on which side of the number the result lay.

Bcl-2, sequence (P10415 whole entry, species assumed): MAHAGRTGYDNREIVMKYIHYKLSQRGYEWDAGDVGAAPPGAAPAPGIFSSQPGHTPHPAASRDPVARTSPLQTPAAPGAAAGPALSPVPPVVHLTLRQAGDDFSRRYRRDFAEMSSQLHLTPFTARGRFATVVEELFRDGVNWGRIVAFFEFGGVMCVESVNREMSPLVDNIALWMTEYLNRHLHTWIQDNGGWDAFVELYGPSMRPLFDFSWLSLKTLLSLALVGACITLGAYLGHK
Mcl-1, sequence (Q07820 whole entry, species assumed): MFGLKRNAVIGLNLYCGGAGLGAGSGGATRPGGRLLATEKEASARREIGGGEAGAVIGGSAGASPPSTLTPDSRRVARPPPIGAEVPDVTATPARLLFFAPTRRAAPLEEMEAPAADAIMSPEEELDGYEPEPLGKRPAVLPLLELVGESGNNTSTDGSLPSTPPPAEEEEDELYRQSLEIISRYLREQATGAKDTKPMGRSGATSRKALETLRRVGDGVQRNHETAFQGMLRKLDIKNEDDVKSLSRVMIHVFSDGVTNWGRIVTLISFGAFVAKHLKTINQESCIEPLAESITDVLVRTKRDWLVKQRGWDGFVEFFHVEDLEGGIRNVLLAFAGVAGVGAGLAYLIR

As to `CN(C)CC[C@H](CSc1ccccc1)Nc1ccc(S(=O)(=O)NC(=O)c2ccc(N3CCN(Cc4ccccc4-c4ccc(Cl)cc4)CC3)cc2)cc1[N+](=O)[O-]` [ABT-737, reference compound], in the assay with Mcl-1, Bcl-xL, Bcl-2 (TABLE 8), the Profile entry is “Bcl-xL/Bcl-2 selective”.
In the case of `CC[C@H](C)[C@H](NC(C)=O)C(=O)N[C@@H](Cc1c[nH]c2ccccc12)C(=O)N[C@H](C(=O)N[C@@H](C)C(=O)N[C@@H](CCC(N)=O)C(=O)N[C@@H](C)C(=O)N[C@@H](CC(C)C)C(=O)N[C@@H](CCCNC(=N)N)C(=O)N[C@]1(C)CCCCCCC=CCCC[C@@](C)(C(=O)N[C@@H](Cc2ccc(O)cc2)C(=O)N[C@@H](Cc2ccc(O)cc2)C(=O)N[C@@H](C)C(N)=O)NC(=O)[C@H](CC(N)=O)NC(=O)[C@H](Cc2ccccc2)NC(=O)[C@H](CCC(=O)O)NC(=O)[C@H](CC(=O)O)NC(=O)CNC(=O)[C@H]([C@@H](C)CC)NC1=O)[C@@H](C)CC` [Peptide #1] (Ac-IWIAQALR[R8]IGDEFN[S5]YYA-NH2; staple 9-16), the inhibition constant Ki at Bcl-2 (TABLE 6, read-out: Bcl-2 Ki) was 3.2 nM; on Mcl-1 (TABLE 6, read-out: Mcl-1 Ki), 1.8 nM; on Bcl-xL (TABLE 6, read-out: Bcl-xL Ki), 1.4 nM. Besides, in the assay on Mcl-1, Bcl-xL, Bcl-2 (TABLE 6), the Profile entry is on record as “Pan-selective”.
Take `CC[C@H](C)[C@H](NC(C)=O)C(=O)N[C@@H](Cc1c[nH]c2ccccc12)C(=O)N[C@H](C(=O)N[C@@H](C)C(=O)N[C@@H](CCC(N)=O)C(=O)N[C@@H](C)C(=O)N[C@@H](CC(C)C)C(=O)N[C@@H](CCCNC(=N)N)C(=O)N[C@]1(C)CCCCCCC=CCCC[C@@](C)(C(=O)N[C@@H](Cc2ccc(O)cc2)C(=O)N[C@@H](Cc2ccc(O)cc2)C(=O)N[C@@H](C)C(=O)N[C@@H](CCCNC(=N)N)C(=O)N[C@@H](CCCNC(=N)N)C(N)=O)NC(=O)[C@H](CC(N)=O)NC(=O)[C@H](Cc2ccccc2)NC(=O)[C@H](CCC(=O)O)NC(=O)[C@H](CC(=O)O)NC(=O)CNC(=O)[C@H]([C@@H](C)CC)NC1=O)[C@@H](C)CC` [Peptide #15] (Ac-IWIAQALR[R8]IGDEFN[S5]YYARR-NH2; staple 9-16): the inhibitory constant (Ki) at Mcl-1 (TABLE 8, read-out: Mcl-1 Ki) came to 10.6 nM. For the same compound, the Profile entry with Mcl-1, Bcl-xL, Bcl-2 (TABLE 8) is “Pan-selective”.
Turning to `CC[C@H](C)[C@H](NC(C)=O)C(=O)N[C@@H](Cc1c[nH]c2ccccc12)C(=O)N[C@H](C(=O)N[C@@H](C)C(=O)N[C@@H](CCC(N)=O)C(=O)N[C@@H](C)C(=O)N[C@@H](CC(C)C)C(=O)N[C@@H](CCCNC(=N)N)C(=O)N[C@]1(C)CCCCCCC=CCCC[C@@](C)(C(=O)N[C@@H](Cc2ccc(O)cc2)C(=O)N[C@@H](Cc2ccc(O)cc2)C(=O)N[C@@H](C)C(N)=O)NC(=O)[C@H](CC(N)=O)NC(=O)[C@H](Cc2ccccc2)NC(=O)[C@H](CCC(N)=O)NC(=O)[C@H](CC(=O)O)NC(=O)CNC(=O)[C@H]([C@@H](C)CC)NC1=O)[C@@H](C)CC` [compound 2] (Ac-IWIAQALR[R8]IGDQFN[S5]YYA-NH2; staple 9-16), the inhibitory constant (Ki) is 67 nM on Bcl-2 (TABLE 6, read-out: Bcl-2 Ki); 5.2 nM at Mcl-1 (TABLE 6, read-out: Mcl-1 Ki); 12 nM at Bcl-xL (TABLE 6, read-out: Bcl-xL Ki). Besides, in the assay with Mcl-1, Bcl-xL, Bcl-2 (TABLE 6), the Profile entry is recorded as “Pan-selective”.
With `CC[C@H](C)[C@H](NC(C)=O)C(=O)N[C@@H](Cc1c[nH]c2ccccc12)C(=O)N[C@H](C(=O)N[C@@H](C)C(=O)N[C@@H](CCC(N)=O)C(=O)N[C@@H](C)C(=O)N[C@@H](CC(C)C)C(=O)N[C@@H](CCCNC(=N)N)C(=O)N[C@]1(C)CCCCCCC=CCCC[C@@](C)(C(=O)N[C@@H](Cc2ccc(O)cc2)C(=O)N[C@@H](Cc2ccc(O)cc2)C(=O)N[C@@H](C)C(N)=O)NC(=O)[C@H](CC(N)=O)NC(=O)[C@H](C)NC(=O)[C@H](CCC(N)=O)NC(=O)[C@H](CC(=O)O)NC(=O)CNC(=O)[C@H]([C@@H](C)CC)NC1=O)[C@@H](C)CC` [compound 8] (Ac-IWIAQALR[R8]IGDQAN[S5]YYA-NH2; staple 9-16), on Mcl-1 (TABLE 6, read-out: Mcl-1 Ki), the inhibitory constant (Ki) worked out at 1.4 nM. In addition, the Profile entry in the assay with Mcl-1, Bcl-xL, Bcl-2 (TABLE 6) was “Mcl-1 selective”.
In the case of `CC[C@H](C)[C@H](NC(C)=O)C(=O)N[C@@H](Cc1c[nH]c2ccccc12)C(=O)N[C@H](C(=O)N[C@@H](C)C(=O)N[C@@H](CCC(N)=O)C(=O)N[C@@H](C)C(=O)N[C@@H](CC(C)C)C(=O)N[C@@H](CCCNC(=N)N)C(=O)N[C@]1(C)CCCCCCC=CCCC[C@@](C)(C(=O)N[C@@H](Cc2ccc(O)cc2)C(=O)N[C@@H](Cc2ccc(O)cc2)C(=O)N[C@@H](C)C(N)=O)NC(=O)[C@H](CC(N)=O)NC(=O)[C@H](Cc2ccccc2)NC(=O)[C@H](CCC(N)=O)NC(=O)[C@H](CC(=O)O)NC(=O)[C@H](C)NC(=O)[C@H]([C@@H](C)CC)NC1=O)[C@@H](C)CC` [compound 9] (Ac-IWIAQALR[R8]IADQFN[S5]YYA-NH2; staple 9-16), the Ki on Bcl-2 (TABLE 6, read-out: Bcl-2 Ki) was 25.6 nM; on Bcl-xL (TABLE 6, read-out: Bcl-xL Ki), 7.7 nM. In the assay on Mcl-1, Bcl-xL, Bcl-2 (TABLE 6), the Profile result was “Bcl-xL/Bcl-2 selective”.
For the compound `CC[C@H](C)[C@H](NC(C)=O)C(=O)N[C@@H](Cc1c[nH]c2ccccc12)C(=O)N[C@H](C(=O)N[C@@H](C)C(=O)N[C@@H](CCC(N)=O)C(=O)N[C@@H](C)C(=O)N[C@@H](CC(C)C)C(=O)N[C@@H](C)C(=O)N[C@]1(C)CCCCCCC=CCCC[C@@](C)(C(=O)N[C@@H](Cc2ccc(O)cc2)C(=O)N[C@@H](Cc2ccc(O)cc2)C(=O)N[C@@H](C)C(N)=O)NC(=O)[C@H](CC(N)=O)NC(=O)[C@H](Cc2ccccc2)NC(=O)[C@H](C)NC(=O)[C@H](CC(=O)O)NC(=O)CNC(=O)[C@H]([C@@H](C)CC)NC1=O)[C@@H](C)CC` [compound 11] (Ac-IWIAQALA[R8]IGDAFN[S5]YYA-NH2; staple 9-16), the inhibition constant Ki worked out at 73.8 nM at Mcl-1 (TABLE 6, read-out: Mcl-1 Ki) and 386 nM at Bcl-xL (TABLE 6, read-out: Bcl-xL Ki). The Profile entry in the assay with Mcl-1, Bcl-xL, Bcl-2 (TABLE 6) is “negative control”.
In the case of `CC[C@H](C)[C@H](NC(C)=O)C(=O)N[C@@H](Cc1c[nH]c2ccccc12)C(=O)N[C@H](C(=O)N[C@@H](C)C(=O)N[C@@H](CCC(N)=O)C(=O)N[C@@H](C)C(=O)N[C@@H](CC(C)C)C(=O)N[C@@H](CCCNC(=N)N)C(=O)N[C@]1(C)CCCCCCC=CCCC[C@@](C)(C(=O)N[C@@H](Cc2ccc(O)cc2)C(=O)N[C@@H](Cc2ccc(O)cc2)C(=O)N[C@@H](C)C(N)=O)NC(=O)[C@H](CC(N)=O)NC(=O)[C@H](Cc2ccccc2)NC(=O)[C@H](C)NC(=O)[C@H](CC(N)=O)NC(=O)CNC(=O)[C@H]([C@@H](C)CC)NC1=O)[C@@H](C)CC` [compound 12] (Ac-IWIAQALR[R8]IGNAFN[S5]YYA-NH2; staple 9-16), the Profile result in the assay with Mcl-1, Bcl-xL, Bcl-2 (TABLE 6) is given as “negative control”.
On the same count and under the same terms, to `CC[C@H](C)[C@H](NC(C)=O)C(=O)N[C@@H](Cc1c[nH]c2ccccc12)C(=O)N[C@H](C(=O)N[C@@H](C)C(=O)N[C@@H](CCC(N)=O)C(=O)N[C@@H](C)C(=O)N[C@@H](C)C(=O)N[C@@H](CCCNC(=N)N)C(=O)N[C@]1(C)CCCCCCC=CCCC[C@@](C)(C(=O)N[C@@H](Cc2ccc(O)cc2)C(=O)N[C@@H](Cc2ccc(O)cc2)C(=O)N[C@@H](C)C(N)=O)NC(=O)[C@H](CC(N)=O)NC(=O)[C@H](Cc2ccccc2)NC(=O)[C@H](C)NC(=O)[C@H](CC(=O)O)NC(=O)CNC(=O)[C@H]([C@@H](C)CC)NC1=O)[C@@H](C)CC` [compound 13] (Ac-IWIAQAAR[R8]IGDAFN[S5]YYA-NH2; staple 9-16) belongs “negative control”.
With `CC[C@H](C)[C@H](NC(C)=O)C(=O)N[C@@H](Cc1c[nH]c2ccccc12)C(=O)N[C@H](C(=O)NC(C)(C)C(=O)N[C@@H](CCC(N)=O)C(=O)N[C@@H](C)C(=O)N[C@@H](CC(C)C)C(=O)N[C@@H](CCCNC(=N)N)C(=O)N[C@]1(C)CCCCCCC=CCCC[C@@](C)(C(=O)N[C@@H](Cc2ccc(O)cc2)C(=O)N[C@@H](Cc2ccc(O)cc2)C(=O)N[C@@H](C)C(N)=O)NC(=O)[C@H](CC(N)=O)NC(=O)[C@H](Cc2ccccc2)NC(=O)[C@H](C)NC(=O)C(C)(CC(=O)O)NC(=O)CNC(=O)[C@H]([C@@H](C)CC)NC1=O)[C@@H](C)CC` (stereo partly drawn) [compound 1707] (Ac-IWI[Aib]QALR[R8]IG[ξαMeD]AFN[S5]YYA-NH2; staple 9-16), the Ki at Bcl-2 (read-out: Ki BCL-2), at Mcl-1 (read-out: Ki MCL-1) and on Bcl-xL (read-out: Ki BCL-XL) was above 1000 nM throughout.
As to `CC[C@H](C)[C@H](NC(C)=O)C(=O)N[C@@H](Cc1c[nH]c2ccccc12)C(=O)N[C@H](C(=O)N[C@@H](C)C(=O)N[C@@H](CCC(N)=O)C(=O)N[C@@H](C)C(=O)N[C@@H](CC(C)C)C(=O)N[C@@H](CCCNC(=N)N)C(=O)N[C@]1(C)CCCCCCC=CCCC[C@@](C)(C(=O)N[C@@H](Cc2ccc(O)cc2)C(=O)N[C@@H](Cc2c[nH]c3ccccc23)C(=O)N[C@@H](C)C(N)=O)NC(=O)[C@H](CC(N)=O)NC(=O)[C@H](Cc2ccccc2)NC(=O)[C@H](C)NC(=O)[C@H](CC(=O)O)NC(=O)CNC(=O)[C@H]([C@@H](C)CC)NC1=O)[C@@H](C)CC` [compound 1758] (Ac-IWIAQALR[R8]IGDAFN[S5]YWA-NH2; staple 9-16), the inhibitory constant (Ki) on Bcl-2 (read-out: Ki BCL-2) stood at 23.5 nM; on Mcl-1 (read-out: Ki MCL-1) it was 3.9 nM; on Bcl-xL (read-out: Ki BCL-XL), 15.4 nM.
`CC[C@H](C)[C@H](NC(C)=O)C(=O)N[C@@H](Cc1c[nH]c2ccccc12)C(=O)N[C@H](C(=O)N[C@@H](C)C(=O)N[C@@H](CCC(N)=O)C(=O)N[C@@H](C)C(=O)N[C@@H](CC(C)C)C(=O)N[C@@H](CCCNC(N)=O)C(=O)N[C@]1(C)CCCCCCC=CCCC[C@@](C)(C(=O)N[C@@H](Cc2ccc(O)cc2)C(=O)N[C@@H](Cc2ccc(O)cc2)C(=O)N[C@@H](C)C(N)=O)NC(=O)[C@H](CC(N)=O)NC(=O)[C@H](Cc2ccccc2)NC(=O)[C@H](C)NC(=O)[C@H](CC(N)=O)NC(=O)CNC(=O)[C@H]([C@@H](C)CC)NC1=O)[C@@H](C)CC` [compound 1772]: the inhibition constant Ki at Bcl-2 (read-out: Ki BCL-2), at Mcl-1 (read-out: Ki MCL-1) and at Bcl-xL (read-out: Ki BCL-XL) was above 1000 nM throughout.
